Measurements as given in patent US11174287B2, “Central nervous system homing peptides and uses thereof” (UNIVERSITY OF MARYLAND, BALTIMORE, priority 2017, dated 2021).
Ends that are not written are not given here.

Legend:
[1] = test system: spleen, kidney, liver and lung tissue of normal mice; test: Peptide overlay assay, FITC-labeled peptide binding in various organs of normal mice; set-up: species or system mouse
Description: (§1) The peptide sequences were synthesized by Genscript (NJ, USA) with at least 95% purity. For fluorescent peptides, fluorescein isothiocyanate (FITC) dye was conjugated at the amino terminus of peptides. The excitation/emission wavelengths for FITC were 490/520 nm.

[2] = test system: spleen, kidney, liver and lung tissue of EAE mice; test: Peptide overlay assay, FITC-labeled peptide binding to various organs of EAE mice; set-up: species or system mouse
Description: as §1

[3] = test system: spinal cord and brain cerebellum of EAE mice; test: FITC-labeled peptide binding to spinal cord and brain cerebellum; set-up: species or system mouse; conditions: compared to scrambled peptide CSGRRGKSC
Description: as §1

[4] = test system: inflamed central nervous system (spinal cord, brain) of EAE mice; test: NIR imaging of brain and spinal cord after i.v. injection of Cy7-labeled peptide (IVIS Xenogen); type: in vivo, mouse; conditions: for accumulation (NIR signal) in the spinal cord: perfused
Method: The antigen was prepared by emulsifying the myelin oligodendrocyte glycoprotein (MOG) region of 35-55 peptide sequence with at least >98% purity based on mass spectrophotometry (CS Bio, CA, USA) with an equal volume of complete Freund's adjuvant (CFA) containing 5 mg/ml of heat killed desiccated M. tuberculosis-H37RA (Bacto, MI, USA). The suspension was thoroughly mixed to form a thick emulsion. Experimental autoimmune encephalomyelitis (EAE), which closely resembles human multiple sclerosis (MS) was induced in C57BL/6 mice by subcutaneous injection of 200 μg/MOG/mouse. In addition, 2 doses of 200-400 ng each of Pertussis toxin (Calbiochem, CA, USA) were administered i.p. after MOG injection at 0 and 48 hours.
Near Infrared (NIR) Cyanine 7 (Cy7) dye-labeled test peptide CRGGKRSSC (SEQ ID NO:14) or control peptide was injected into the tail vein of diseased (EAE) mice and naive (control) mice. The peptides were allowed to circulate for 24 hours. Thereafter, mice were euthanized, perfused extensively through the heart using PBS. Following that, the brain and spinal cord were removed and scanned for NIR imaging signals using IVIS Xenogen imaging System.

Row | Substance | binding of FITC-labeled peptide to spleen, kidney, liver and lung tissue [1] | binding of FITC-labeled peptide to spleen, kidney, liver and lung tissue [2] | binding of FITC-labeled peptide to spinal cord and cerebellum [3] | homing when injected into the bloodstream ([4]; EAE mice versus normal mice) | NIR signal in the cerebellum ([4]; EAE mice versus control mice and control peptide, intensity relative to spinal cord, 24 hours) | accumulation (NIR signal) in the spinal cord ([4]; EAE mice, tail vein injection, 24 hours circulation) | accumulation (NIR signal) in the spinal cord ([4]; naive (control) mice, tail vein injection, 24 hours circulation) | NIR signal in the cerebrum ([4]; tail vein injection, 24 hours circulation)
1 | CRAKGRDAC (cysteine pairing not given here; also: FITC label, site not given here) [CNS-homing peptide containing the RAK motif] | minimal binding | minimal binding except for lung | – | – | – | – | – | –
2 | CRGGKRSSC (cysteine pairing not given here; also: FITC label, site not given here) [CNS-homing peptide from CX7C phage library, denoted "KRSS"] | minimal binding except for spleen | minimal binding | significantly higher binding | preferentially homed to inflamed spinal cord of EAE mice but not in normal mice | – | – | – | –
3 | KRSS-Cy7: Near Infrared cyanine 7 (Cy7) dye-labeled test peptide CRGGKRSSC (SEQ ID NO:14) (cysteine pairing not given here; also: Cy7 dye label, site not given here) | – | – | – | – | much lower in intensity | significantly higher accumulation | barely showed any detectable signal | no signal was detected
